Measured values reported in patent publication EP4702986A1, “POLYPEPTIDE AND USE THEREOF” (Biocells (Beijing) Biotech Co., Ltd., priority 2023, dated 2024).
Where two headings read alike, the source gives them in different places. Numbered stars: 1 amine (or outer) side, 2 acyl side, 3 side chain; on linkers, the order of the positions; unused ones are H or OH. Side chains are listed from the residue outwards. Ends that are not written are not given here. Peptide text beside a SMILES is read from it. * marks the point of attachment. X1 = C[C@H](NC(=O)[C@@H]1CCCN1C(=O)[C@@H](N)CSC1CC(=O)N(CCC(=O)*)C1=O)C(=O)N[C@@H](CCCCN)C(=O)O; C18 diacid = O=C(O)CCCCCCCCCCCCCCCCC(=O)*; γGlu = O=C(O)[C@H](CCC(=O)[*:2])N[*:1]; Fumaroyl = O=C(O)/C=C/C(=O)*; Suc = O=C(CCC(=O)[*:2])[*:1]; Lauroyl = CCCCCCCCCCCC(=O)*; AEEA = NCCOCCOCC(=O)O

Target: T1, human ETA receptor (Homo sapiens, UniProt P25101)
T1 construct: expressed in transfected cells; host or cells: 293T-17 cells, transient transfection
T1 sequence (P25101 21-427): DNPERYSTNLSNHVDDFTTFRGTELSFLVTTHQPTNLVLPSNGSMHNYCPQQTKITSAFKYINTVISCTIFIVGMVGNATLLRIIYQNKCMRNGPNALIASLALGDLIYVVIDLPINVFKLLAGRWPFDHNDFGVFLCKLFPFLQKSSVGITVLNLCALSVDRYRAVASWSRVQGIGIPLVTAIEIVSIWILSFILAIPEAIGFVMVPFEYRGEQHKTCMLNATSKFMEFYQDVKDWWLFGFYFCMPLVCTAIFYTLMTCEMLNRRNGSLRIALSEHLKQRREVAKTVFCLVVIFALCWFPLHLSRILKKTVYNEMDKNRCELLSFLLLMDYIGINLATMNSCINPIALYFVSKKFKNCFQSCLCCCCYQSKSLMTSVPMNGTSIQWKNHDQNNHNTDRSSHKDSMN
Assay: Selectivity of polypeptides on human ETA receptor (IP-One Gq kit, % of positive control ET1)
Format: cell-based
Summary of the method: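 293T-17 cells transiently transfected with human ETA receptor (48 h), 30,000 cells/well exposed to polypeptides for 1 h at 37°C; IP1 accumulation by HTRF (665/620 nm ratio). Activity given as % of ET1 at the same concentration after PBS-control subtraction.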

[1] = read-out: hETAR agonist activity, percentage of activity relative to ET1

Compound: Fum-DEEEVYFAHOrnDIIW [BX-59]
- hETAR agonist activity, percentage of activity relative to ET1: -7.67%@100µM
- hETAR agonist activity, percentage of activity relative to ET1 (@10µM): -10.61%@10µM

Compound: CCCCCCCCCCCC(=O)N[C@@H](CCC(=O)NCCOCCOCC(=O)NCCCC[C@H](NC(=O)[C@H](Cc1c[nH]cn1)NC(=O)[C@H](C)NC(=O)[C@H](Cc1ccccc1)NC(=O)[C@H](Cc1ccc(O)cc1)NC(=O)[C@@H](NC(=O)[C@H](C)NC(=O)[C@H](CCC(=O)O)NC(=O)[C@H](CCC(=O)O)NC(=O)[C@H](CC(=O)O)NC(=O)/C=C/C(=O)O)C(C)C)C(=O)N[C@@H](CC(=O)O)C(=O)N[C@H](C(=O)N[C@H](C(=O)N[C@@H](Cc1c[nH]c2ccccc12)C(=O)O)[C@@H](C)CC)C(C)C)C(=O)O [BX229-Na] (Fumaroyl-DEEAVYFAHK([AEEA-γGlu-Lauroyl])DVIW-OH)
- activation at 100 µM (@100µM, read-out: hETAR agonist activity, percentage of activity relative to ET1): 0.68%

Compound: CCCCCCCCCCCC(=O)N[C@@H](CCC(=O)NCCOCCOCC(=O)NCCCC[C@H](NC(=O)[C@H](Cc1c[nH]cn1)NC(=O)[C@H](C)NC(=O)[C@H](Cc1ccccc1)NC(=O)[C@H](Cc1ccc(O)cc1)NC(=O)[C@@H](NC(=O)[C@H](C)NC(=O)[C@H](CCC(=O)O)NC(=O)[C@H](CCC(=O)O)NC(=O)[C@H](CC(=O)O)NC(=O)/C=C/C(=O)O)C(C)C)C(=O)N[C@@H](CC(=O)O)C(=O)N[C@H](C(=O)N[C@H](C(=O)N[C@@H](Cc1c[nH]c2ccccc12)C(=O)O)[C@@H](C)CC)[C@@H](C)CC)C(=O)O [BX-225] (Fumaroyl-DEEAVYFAHK([AEEA-γGlu-Lauroyl])DIIW-OH)
- activation at 10 µM [1]: 0.52%
- activation at 100 µM [1]: 3.59%

Compound: CC[C@H](C)[C@H](NC(=O)[C@H](CC(=O)O)NC(=O)[C@H](CCCCNC(=O)COCCOCCNC(=O)CCN1C(=O)CC(SC[C@H](N)C(=O)N2CCC[C@H]2C(=O)N[C@@H](C)C(=O)N[C@@H](CCCCN)C(=O)O)C1=O)NC(=O)[C@H](Cc1c[nH]cn1)NC(=O)[C@H](C)NC(=O)[C@H](Cc1ccccc1)NC(=O)[C@H](Cc1ccc(O)cc1)NC(=O)[C@@H](NC(=O)[C@H](C)NC(=O)[C@H](CCC(=O)O)NC(=O)[C@H](CCC(=O)O)NC(=O)[C@H](CC(=O)O)NC(=O)/C=C/C(=O)O)C(C)C)C(=O)N[C@H](C(=O)N[C@@H](Cc1c[nH]c2ccccc12)C(=O)O)[C@@H](C)CC (stereo partly shown) [BX-95] (Fumaroyl-DEEAVYFAHK([AEEA-X1])DIIW-OH)
- activation at 10 µM [1]: -9.81%
- activation at 100 µM [1]: -7.46%

Compound: Suc-DE cyclo(CEEC)YFAHKDIIW (Suc-DECEECYFAHKDIIW; not fully specified (bridges); printed as Suc-DE cyclo(CEEC)YFAHKDIIW; also: cyclo(CEEC) in N-terminal extension, bond type not given here) [BX-57]
- hETAR agonist activity, percentage of activity relative to ET1: -10.53%@100µM
- hETAR agonist activity, percentage of activity relative to ET1 (@10µM): -29.04%@10µM

Compound: Fum-DEEEVYFAHKDIIW (Fumaroyl-DEEEVYFAHKDIIW) [BX-52]
- hETAR agonist activity, percentage of activity relative to ET1 (@10nM): -2.49%@10nM
- hETAR agonist activity, percentage of activity relative to ET1 (@100nM): -11.24%@100nM

Compound: CC[C@H](C)[C@H](NC(=O)[C@H](CC(=O)O)NC(=O)[C@H](CCCCNC(=O)COCCOCCNC(=O)COCCOCCNC(=O)CC[C@H](NC(=O)CCCCCCCCCCCCCCCCC(=O)O)C(=O)O)NC(=O)[C@H](Cc1c[nH]cn1)NC(=O)[C@H](C)NC(=O)[C@H](Cc1ccccc1)NC(=O)[C@H](Cc1ccc(O)cc1)NC(=O)[C@@H](NC(=O)[C@H](C)NC(=O)[C@H](CCC(=O)O)NC(=O)[C@H](CCC(=O)O)NC(=O)[C@H](CC(=O)O)NC(=O)/C=C/C(=O)O)C(C)C)C(=O)N[C@H](C(=O)N[C@@H](Cc1c[nH]c2ccccc12)C(=O)O)[C@@H](C)CC [BX-34] (Fumaroyl-DEEAVYFAHK([AEEA-AEEA-γGlu-C18 diacid])DIIW-OH)
- activation at 0.01 µM [1]: -23.5%
- activation at 0.1 µM [1]: -11%
